Measurements as given in patent publication US8486462B2, “Glycoside having 4-methylergost-7-en-3-ol skeleton and hyperglycemia improving agent” (Morinaga Milk Industry Co., Ltd., priority 2004, dated 2013).
Read-outs that look alike come from different tables or passages of the source.

Legend:
[1] = test system: db/db mice; conditions: for Hemoglobin A1c relative levels (%) 35th day from the administration: db/db mice, negative sample = 100
Description: As type-II diabetes model mice, 6-week old male db/db mice (purchased from Clea Japan, Inc.) were used. These mice were divided into groups, each consisting of 7 animals. The test sample was dissolved in DMSO, and the concentration of 3-O-β-D-glucopyranosyl-4-methylergost-7-en-3-ol was adjusted to 1, 5 and 15 μg/mL with physiological saline. The final DMSO concentration was adjusted to 0.2%. The type-II diabetes model mice were orally administered with 1 mL of the test sample solution once day everyday with a sonde. […] On the 35th day from the start of the administration, hemoglobin A1c levels were measured by using DCA 2000 (Bayer-Sankyo Co., Ltd.).

[2] = test system: db/db mice; assay: Test Example 1: hyperglycemia improving effect, random and fasting blood glucose levels in type-II diabetes model mice; assay type: in vivo; conditions: oral 1 mL of 15 μg/mL once a day, vs negative sample
Description: The final DMSO concentration was adjusted to 0.2%. The type-II diabetes model mice were orally administered 1 mL of the test sample solution once a day everyday with a sonde. […] Fasting blood glucose levels and random blood glucose levels were measured over time using Antisense II (Bayer-Sankyo Co., Ltd.). The fasting blood glucose levels were measured after 15 hours of fasting.

CC1C(O[C@@H]2O[C@H](CO)[C@@H](O)[C@H](O)[C@H]2O)CC[C@@]2(C)C1CC=C1[C@@H]3CC[C@H]([C@H](C)CC[C@H](C)C(C)C)[C@@]3(C)CC[C@@H]12 (stereo partly drawn) [compound 1, 3-O-β-D-glucopyranosyl-4-methylergost-7-en-3-ol]
Hemoglobin A1c relative levels (%) 35th day from the administration ([1]; 1 μg oral once a day): 98.6 ± 7.3%
Hemoglobin A1c relative levels (%) 35th day from the administration ([1]; 5 μg oral once a day): 89.6 ± 7.9 %
Hemoglobin A1c relative levels (%) 35th day from the administration ([1]; 15 μg oral once a day): 73.5 ± 8.6 %
hemoglobin A1c levels in comparison with negative sample ([1]; repetitive administration of 5 or 15 μg, 35th day): statistically significant decreases
fasting blood glucose levels, changes over time ([2]; after 15 hours of fasting): effect of suppressing the increases in blood glucose levels was clearly observed
random blood glucose levels, changes over time [2]: effect of suppressing the increases in blood glucose levels was clearly observed
